From patent publication US20240018145A1, “[…]-DEPENDENT EN[…] TREATING OR […]” (priority 2020, published 2024) come the findings set out here.

For the experiment, the system named is FLU A (PR/8/34). Kind of experiment: Flu A Neuraminidase Antiviral Assay. In kind it is cell-based.

The structures appear in SMILES notation. Like-named read-outs stand apart in the source and are kept apart here.

What is called EC50 is the midpoint of the concentration-response curve.

Consider `Cc1ccccc1C1N2C(CCC13CC1C(C3)C1(F)F)N(C)C(=O)c1c(O)c(=O)ccn12` (single isomer, unassigned) [Compound 69A, 6,6-difluoro-7′-hydroxy-5′-methyl-1′-(o-tolyl)-3′,4′,4a′,5′-tetrahydro-1′H-spiro[bicyclo[3.1.0]hexane-3,2′-dipyrido[1,2-b:2′,1′-f][1,2,4]triazine]-6′,8′-dione], for which it took 2.3 nM to reach a half-maximal effect (EC50).

`CC1(c2nccs2)CCCC2N(CC(F)(F)F)C(=O)c3c(O)c(=O)ccn3N21` (single isomer, unassigned) [Compound 41A, 7-hydroxy-1-methyl-1-(thiazol-2-yl)-5-(2,2,2-trifluoroethyl)-1,2,3,4,4a,5-hexahydrodipyrido[1,2-b:2′,1′-f][1,2,4]triazine-6,8-dione] yielded an EC50 of over 8100 nM.

`CN1C(=O)c2c(O)c(=O)ccn2N2C(c3ccccc3F)CCCC12` (single isomer, unassigned) [Compound 8A, 1-(2-fluorophenyl)-7-hydroxy-5-methyl-1,2,3,4,4a,5-hexahydrodipyrido[1,2-b:2′,1′-f][1,2,4]triazine-6,8-dione] showed an EC50 of over 8100 nM.

`CN1C(=O)c2c(O)c(=O)ccn2N2C(c3ccccc3)C(O)CCC12` (centres unmarked) [Compound 135B, 2,7-dihydroxy-5-methyl-1-phenyl-1,2,3,4,4a,5-hexahydrodipyrido[1,2-b:2′,1′-f][1,2,4]triazine-6,8-dione] came in with an EC50 of over 8100 nM.

Consider `CN1C(=O)c2c(O)c(=O)ccn2N2[C@H](c3ccccc3)[C@H](OCC3CCCC3)CC[C@@H]12` [Compound 158, (1R,2R,4aS)-2-(cyclopentylmethoxy)-7-hydroxy-5-methyl-1-phenyl-1,2,3,4,4a,5-hexahydrodipyrido[1,2-b:2′,1′-f][1,2,4]triazine-6,8-dione], for which it took 102 nM to reach a half-maximal effect (MDCK, 48 h) (EC50).

Consider `CC(C)CC1CC(c2ccccc2)N2C(C1)N(C)C(=O)c1c(O)c(=O)ccn12` (centres unmarked) [Compound 130B, 7-hydroxy-3-isobutyl-5-methyl-1-phenyl-1,2,3,4,4a,5-hexahydrodipyrido[1,2-b:2′,1′-f][1,2,4]triazine-6,8-dione], for which the EC50 (MDCK, 48 h) turned out to be 1410 nM.

On to `CN1C(=O)c2c(O)c(=O)ccn2N2C(c3ccccc3F)C(CC(F)F)CCC12` (single isomer, unassigned) [Compound 113B, 2-(2,2-difluoroethyl)-1-(2-fluorophenyl)-7-hydroxy-5-methyl-1,2,3,4,4a,5-hexahydrodipyrido[1,2-b:2′,1′-f][1,2,4]triazine-6,8-dione], for which the response was half-maximal at 7.3 nM (EC50).

Turning to `CN1C(=O)c2c(O)c(=O)ccn2N2C(c3cc(F)ccc3C(F)(F)F)CCCC12` (single isomer, unassigned) [Compound 13B, 1-(5-fluoro-2-(trifluoromethyl)phenyl)-7-hydroxy-5-methyl-1,2,3,4,4a,5-hexahydro-dipyrido[1,2-b:2′,1′-f][1,2,4]triazine-6,8-dione], the EC50 was 783 nM. Against the preceding compound, the EC50 is about 110-fold higher.

In turn, `CN1C(=O)c2c(O)c(=O)ccn2N2C(c3ccccc3F)CCCC12` (single isomer, unassigned) [Compound 8B, 1-(2-fluorophenyl)-7-hydroxy-5-methyl-1,2,3,4,4a,5-hexahydrodipyrido[1,2-b:2′,1′-f][1,2,4]triazine-6,8-dione] registered an EC50 of 65.6 nM. Compared with the last compound, the EC50 is about 12-fold lower.

In turn, `CN1C(=O)c2c(O)c(=O)ccn2N2C1CCC1(CCC(F)(F)C1)C2c1ccccc1` (single isomer, unassigned) [Compound 68B, 3,3-difluoro-7′-hydroxy-5′-methyl-1′-phenyl-3′,4′,4a′,5′-tetrahydro-1′H-spiro[cyclopentane-1,2′-dipyrido[1,2-b:2′,1′-f][1,2,4]triazine]-6′,8′-dione] showed an EC50 of over 810 nM.

As for `Cc1ccccc1C1C(CC(F)(F)F)CC(C)C2N(C)C(=O)c3c(O)c(=O)ccn3N12` (single isomer, unassigned) [Compound 79B, 7-hydroxy-4,5-dimethyl-1-(o-tolyl)-2-(2,2,2-trifluoroethyl)-1,2,3,4,4a,5-hexahydrodipyrido[1,2-b:2′,1′-f][1,2,4]triazine-6,8-dione], the EC50 was found to be 2.3 nM. This counts as single-digit nanomolar.

As for `C=CCC1CCC2N(C)C(=O)c3c(O)c(=O)ccn3N2C1c1ccccc1Cl` (centres unmarked) [Compound 64C, 2-allyl-1-(2-chlorophenyl)-7-hydroxy-5-methyl-1,2,3,4,4a,5-hexahydrodipyrido[1,2-b:2′,1′-f][1,2,4]triazine-6,8-dione], the EC50 turned out to be 674 nM.

Regarding `CN1C(=O)c2c(O)c(=O)ccn2N2C1CCCC2(C)c1c(F)cccc1F` (single isomer, unassigned) [Compound 23A, 1-(2,6-difluorophenyl)-7-hydroxy-1,5-dimethyl-1,2,3,4,4a,5-hexahydrodipyrido[1,2-b:2′,1′-f][1,2,4]triazine-6,8-dione], the EC50 is over 8100 nM.

`CN1C(=O)c2c(O)c(=O)ccn2N2C1CCC1(CC(F)(F)C1)C2c1ccccc1` (single isomer, unassigned) [Compound 74A, 3,3-difluoro-7′-hydroxy-5′-methyl-1′-phenyl-3′,4′,4a′,5′-tetrahydro-1′H-spiro[cyclobutane-1,2′-dipyrido[1,2-b:2′,1′-f][1,2,4]triazine]-6′,8′-dione] gave an EC50 of over 810 nM.

Consider `CN1C(=O)c2c(O)c(=O)ccn2N2C1CC[C@H](OCC=C(F)F)[C@@]2(C)c1ccccc1` (some centres unmarked) [Compound 151], for which the EC50 (MDCK, 48 h) was over 810 nM.

In turn, `CN1C(=O)c2c(O)c(=O)ccn2N2C1CCCC2(C)c1cccc(OC(F)F)c1` (single isomer, unassigned) [Compound 51B, 1-(3-(difluoromethoxy)phenyl)-7-hydroxy-1,5-dimethyl-1,2,3,4,4a,5-hexahydrodipyrido[1,2-b:2′,1′-f][1,2,4]triazine-6,8-dione] gave an EC50 of 16.3 nM. In other words, the double-digit nanomolar range.

As for `CN1C(=O)c2c(O)c(=O)ccn2N2C(c3c(F)cccc3F)C(CC(F)(F)F)CCC12` (single isomer, unassigned) [Compound 123D, 1-(2,6-difluorophenyl)-7-hydroxy-5-methyl-2-(2,2,2-trifluoroethyl)-1,2,3,4,4a,5-hexahydrodipyrido[1,2-b:2′,1′-f][1,2,4] triazine-6,8-dione], the midpoint of the response, the EC50, lay at 26.9 nM. Compared with the last compound, the EC50 is about 1.7-fold higher.

Turning to `CC1CC(c2ccccc2)N2C(C1)N(C)C(=O)c1c(O)c(=O)ccn12` (single isomer, unassigned) [Compound 6A, 7-hydroxy-3,5-dimethyl-1-phenyl-1,2,3,4,4a,5-hexahydrodipyrido[1,2-b:2′,1′-f][1,2,4]triazine-6,8-dione], a half-maximal response (EC50) required 372 nM.

In turn, `CC1(c2nccs2)CCCC2N(CC(F)(F)F)C(=O)c3c(O)c(=O)ccn3N21` (single isomer, unassigned) [Compound 41B, 7-hydroxy-1-methyl-1-(thiazol-2-yl)-5-(2,2,2-trifluoroethyl)-1,2,3,4,4a,5-hexahydrodipyrido[1,2-b:2′,1′-f][1,2,4]triazine-6,8-dione] returned an EC50 of 11.1 nM.

Compound `CC(C)S[C@H]1CC[C@H]2N(C)C(=O)c3c(O)c(=O)ccn3N2[C@@H]1c1ccccc1` [Compound 143B] returned an EC50 (MDCK, 48 h) of 15.3 nM.

`Cc1ccccc1C1C(CC2CC2(F)F)CCC2N(C)C(=O)c3c(O)c(=O)ccn3N12` (single isomer, unassigned) [Compound 88D] had an EC50 of 2.9 nM.

`CN1C(=O)c2c(O)c(=O)ccn2N2C(c3ccc(F)cc3)C(CC(F)(F)F)CCC12` (single isomer, unassigned) [Compound 122A, 1-(4-fluorophenyl)-7-hydroxy-5-methyl-2-(2,2,2-trifluoroethyl)-1,2,3,4,4a,5-hexahydrodipyrido[1,2-b:2′,1′-f][1,2,4]triazine-6,8-dione] showed an EC50 of 343 nM.

With `Cc1ccccc1C1N2C(CCC13CC1C(C3)C1(F)F)N(C)C(=O)c1c(O)c(=O)ccn12` (single isomer, unassigned) [Compound 69B, 6,6-difluoro-7′-hydroxy-5′-methyl-1′-(o-tolyl)-3′,4′,4a′,5′-tetrahydro-1′H-spiro[bicyclo[3.1.0]hexane-3,2′-dipyrido[1,2-b:2′,1′-f][1,2,4]triazine]-6′,8′-dione], the EC50 came out at 57 nM.

The compound `CCc1ccccc1C1C(CC(F)(F)F)CCC2N(C)C(=O)c3c(O)c(=O)ccn3N12` (single isomer, unassigned) [Compound 112A, 1-(2-ethylphenyl)-7-hydroxy-5-methyl-2-(2,2,2-trifluoroethyl)-1,2,3,4,4a,5-hexahydrodipyrido[1,2-b:2′,1′-f][1,2,4]triazine-6,8-dione] had an EC50 of 3.7 nM.

On to `CN1C(=O)c2c(O)c(=O)ccn2N2C(c3ccccc3)C(c3cccc(F)c3F)CCC12` (single isomer, unassigned) [Compound 116B, 2-(2,3-difluorophenyl)-7-hydroxy-5-methyl-1-phenyl-1,2,3,4,4a,5-hexahydrodipyrido[1,2-b:2′,1′-f][1,2,4]triazine-6,8-dione], for which the EC50 amounted to 6.9 nM.

`CN1C(=O)c2c(O)c(=O)ccn2N2C1CCCC21CCc2ccccc21` (single isomer, unassigned) [Compound 21D, 7-hydroxy-5-methyl-2′,3,3′,4,4a,5-hexahydro-2H-spiro[dipyrido[1,2-b:2′,1′-f][1,2,4]triazine-1,1′-indene]-6,8-dione] had a concentration giving a half-maximal response (EC50) of 1550 nM. This EC50 is about 220-fold higher than that of the compound before.

The compound `CCN1C(=O)c2c(O)c(=O)ccn2N2C(c3ccccc3F)C(CCC(F)F)CCC12` (single isomer, unassigned) [Compound 101B, 2-(3,3-difluoropropyl)-5-ethyl-1-(2-fluorophenyl)-7-hydroxy-1,2,3,4,4a,5-hexahydrodipyrido[1,2-b:2′,1′-f][1,2,4]triazine-6,8-dione] had an EC50 of 5.6 nM.

Compound `Cc1ccccc1C1C(c2ccc(F)c(F)c2)CCC2N(C)C(=O)c3c(O)c(=O)ccn3N12` (single isomer, unassigned) [Compound 91A, 2-(3,4-difluorophenyl)-7-hydroxy-5-methyl-1-(o-tolyl)-1,2,3,4,4a,5-hexahydrodipyrido[1,2-b:2′,1′-f][1,2,4]triazine-6,8-dione] displayed an EC50 of 485 nM.

In the case of `CN1C(=O)c2c(O)c(=O)ccn2N2C(c3c(F)cccc3F)C(CC(F)(F)F)CCC12` (single isomer, unassigned) [Compound 123C, 1-(2,6-difluorophenyl)-7-hydroxy-5-methyl-2-(2,2,2-trifluoroethyl)-1,2,3,4,4a,5-hexahydrodipyrido[1,2-b:2′,1′-f][1,2,4] triazine-6,8-dione], the EC50 was over 8100 nM.
